The source of these data is patent US20190231707A1, “TRANSDERMAL DRUG DELIVERY DEVICE FOR DELIVERING OPIOIDS” (CHRONO THERAPEUTICS INC., priority 2016, published 2019).

The nature of this series: Average cumulative delivery / flux across cadaver skin. The settings on record: FIG. 15. In kind it is in vitro ADME. The text has this:
The prodrug of Naltrexone with the PEG conjugation increased the molecular weight of the compound to be about 690 g/mole. […] The average flux for the Naltrexone was about 15.37 micrograms (μg) per hour per cm^2.

In the case of `O=C1CC[C@@]2(O)[C@H]3Cc4ccc(O)c5c4[C@@]2(CCN3CC2CC2)[C@H]1O5` [Naltrexone], the “average flux across the cadaver skin” value is listed as “about 15.37 micrograms (μg) per hour per cm^2”.
